From article PMC11011246 (Cell, 2024)

How the values were obtained:
[1] = tested on: C57BL/6 WT mice; assay: Short-term GAN-NASH model; assay type: in vivo, mouse; details: 10 mg/kg daily, 12 weeks, vs vehicle
[2] = tested on: C57BL/6 WT mice; assay: Partial hepatectomy in wildtype mice; details: 48 h after partial hepatectomy
[3] = First-in-human phase I trial, pharmacokinetics; assay type: in vivo; details: for Tmax: male, plasma, oral, 50 mg, 50 mg single dose
[4] = tested on: healthy male volunteers; assay: First-in-human phase I trial, safety and tolerability; assay type: in vivo
[5] = tested on: C57BL/6 WT mice; assay: CCl4 liver-damage; details: 10 mg/kg p.o., CCl4 3 weeks, 48 h after PH
[6] = tested on: C57BL/6 WT mice; assay: 4-week treatment/toxicity study in wildtype mice; assay type: in vivo, mouse; details: 10 mg/kg, vs vehicle
[7] = tested on: C57BL/6 WT mice; assay: Long-term GAN-NASH HCC model; assay type: in vivo, mouse
[8] = Pharmacokinetics of HRX215 in mice; assay type: in vivo, C57BL/6 wildtype mice; details: 30 mg/kg p.o.
[9] = tested on: NrasG12V Trp53-/- HCC cells; assay: HCC cell proliferation and trypan blue cell death; assay type: cell-based, murine; details: HRX215 10 μM vs DMSO, up to 72 h
[10] = 4-week GLP toxicity study; details: both, Wistar Han, rat, in vivo, po
[11] = IND-enabling GLP safety pharmacology; assay type: in vivo, rats, dogs; details: GLP studies
[12] = tested on: NrasG12V Cdkn2aARF-/- HCC cells; assay: HCC cell proliferation and trypan blue cell death; assay type: cell-based, murine; details: HRX215 10 μM vs DMSO, up to 72 h
[13] = tested on: C57BL/6 WT mice; assay: Short-term CCl4 liver damage model; assay type: in vivo, mouse; details: 0.4, 2, 10 mg/kg p.o., 48 h after CCl4, vs vehicle
[14] = 4-week GLP toxicity study; details: both, beagle, dog, in vivo, po
[15] = tested on: pigs; assay: 85% hepatectomy; assay type: in vivo, pig

## CCCS(=O)(=O)Nc1c(F)ccc(C(=O)c2n[nH]c3ncc(-c4ccncc4)cc23)c1F [HRX215]
[1]
  numbers of senescent cells in NASH livers: found no differences
[2]; 0.4 mg/kg p.o.
  proliferating hepatocytes (Ki67): 15.38%
[2]; 2 mg/kg p.o.
  proliferating hepatocytes (Ki67): 15.15%
[2]; 10 mg/kg p.o.
  proliferating hepatocytes (Ki67): 26.3%
[3]; ascending doses
  exposure (Cmax and AUC) versus dose: increased proportionally with ascending doses
[3]; fasting
  Tmax: 1.2 h
[3]; fed
  Tmax: 3.9 h
[4]; HRX215 groups, n = 36
  mild to moderate adverse effects, percentage: 36.1%
  number of mild to moderate adverse effects (subjects/group): 13/36
[4]; single and multiple doses 5-500 mg
  severe or serious adverse events: no severe or serious adverse events were reported
[4]; vs placebo
  complete blood counts: no significant differences
[5]
  hepatocyte proliferation upon partial hepatectomy in fibrotic livers: enhance hepatocyte proliferation
[6]; 4 weeks
  complete blood counts: No significant changes were detected
[6]
  untargeted metabolomics of plasma and liver: no safety relevant changes were detected
[7]; 10 mg/kg daily, 12 weeks
  hepatic inflammation and hepatocyte ballooning: no reduction of hepatic inflammation and hepatocyte ballooning
  hepatocyte proliferation (Ki67): slightly increased hepatocyte proliferation
  liver fibrosis: found reduced in HRX215 treated livers, but results missed statistical significance
  overall hepatic lipid content: significant reduction of the overall hepatic lipid content
  tumor size: tendency toward a reduction of tumor size
[7]; 10 mg/kg daily, 12 weeks, vs baseline and vehicle
  number of tumor nodules per liver: did not result in a higher number of tumor nodules per liver
[7]; 10 mg/kg daily, 12 weeks, vs vehicle
  numbers of dysplastic premalignant lesions: did not reveal significant differences
[7]; non-tumor bearing liver parts
  NAS score development: more animals with an improved NAS score and less animals with a worsened NAS score
[8]
  t(1/2), elimination half-life: 3.4 to 3.9 h
[9]
  cell proliferation: significantly reduced cell proliferation
[10]
  NOAEL at 4 weeks: 300 mg/kg/day
[11]
  effect on the cardiovascular, neurological, or respiratory system: absence of any effect
[12]
  cell proliferation: significantly reduced cell proliferation
[13]
  hepatocyte death (TUNEL): significantly reduced hepatocyte death
[14]
  NOAEL at 4 weeks: 250 mg/kg/day
[15]; pigs, 85% hepatectomy
  aspartate aminotransferase: only transiently increased after surgery
  bilirubin plasma levels: only a transient rise with a subsequent drop
  intracranial pressure (ICP) after surgery: did not show an increase in ICP values
  plasma ammonia: prevented an increase of plasma ammonium
[15]; post-surgery treatment group (start 12 h after surgery)
  animals with normal behavior that survived: 5 out of 6
[15]; pre-surgery treatment group (start 12 h before surgery)
  animals with normal behavior that survived: 4 out of 6
